Assay [1] deals with T1, 5-HT2B receptor (Homo sapiens, UniProt P41595). In words: 5-HT2B receptor binding test. The arrangement: expressed in transfected cells; host or cells: HEK293-EBNA cells (membrane sample). The note with it: [3H] Mesulergine, human 5-HT2B receptor expressing HEK293-EBNA cell membrane. Here is the method: Test Method (1) 5-HT2B Receptor Binding Test
(i) Membrane Sample Preparation
(§1) Cultured human 5-HT2B receptor-expressing HEK293-EBNA cells were washed with a phosphate buffer (PBS)(−). The cells were peeled off using a scraper in the presence of PBS(−), and the cells were recovered by a centrifugal treatment (1,000 rpm, 10 min, 4° C.). In the presence of 5 mM tris-hydrochloric acid (Tris-HCl) (pH 7.4) buffer, these were homogenized using a homogenizer (registered trademark: Polytron (PTA 10-TS)) and subjected to a centrifugal treatment (40,000×g, 10 min, 4° C.). In the presence of 50 mM Tris-HCl (pH 7.4) buffer, these were suspended using a glass-Teflon (registered trademark) homogenizer. By carrying out a centrifugal treatment (40,000×g, 10 min, 4° C.), these were suspended in 50 mM Tris-HCl (pH 7.4) and stored at −80° C.
(§2) (ii) Receptor Binding Test
(§3) A total volume of 500 μl containing 50 mM Tris-HCl, 4-mM-CaCl2 (pH 7.4) buffer, the human 5-HT2B receptor expressing HEK293-EBNA cell membrane sample and a radio ligand [^3H] Mesulergine (3.1 TBq/mmol); was incubated at 25° C. for 1 hour. The compound was dissolved in 100% DMSO and diluted to respective concentrations. Nonspecific binding was regarded as the binding quantity in the presence of 1 μM ritanserin, and a result of subtracting the nonspecific binding quantity from the total binding quantity was regarded as the specific binding quantity. By adding 4 ml of 50 mM Tris-HCl buffer (pH 7.4), filtered under a reduced pressure trough a GF/B glass filter, and the filter was washed with the same buffer (4 ml×3). The glass filter was soaked in 5 ml of a liquid scintillator (trade name: Aquasol-2), and the radioactivity quantity was measured using a liquid scintillation counter.

The test system of the next assay is Hartley male guinea pigs. In words: Preventive effect in guinea pig migraine model (5-HT-induced dura mater protein leakage). It is filed as in vivo. The note with it: for minimum amount showing the maximum drug efficacy / dose at which the leaked protein quantity-reducing action was shown / lowering of leaked protein quantity to the standard value when the dose was increased: intravenous; for dose at which the leaked protein quantity-reducing action was shown: 5-HT-induced leakage; for lowering of leaked protein quantity to the standard value when the dose was increased: RS-127445 3 to 10 mg/kg, SB-269970 10 to 30 mg/kg. Here is the method:
Test Method (5) Preventive Effect in Guinea Pig Migraine Model
This test system evaluates the migraine-preventive effect by measuring the amount of this leaked protein in the presence of a compound to be tested and was carried out by partially modifying the method described by Rachel A. Spokes and Vicki C. Middlefell in “European Journal of Pharmacology”, (Holland), 1995, vol. 281, p. 75-79.
Hartley male guinea pigs (250 to 350 g) were anesthetized by the intraperitoneal administration (i.p.) of urethane (1.5 g/kg). By applying a simple canulation to a latent vein, 50 mg/kg of a fluorescent protein (FITC-BSA) was intravenously administered (i.v.) and, 5 minutes thereafter, physiological saline or 1 μmol/ml/kg of 5-HT was intravenously administered. Perfusion was carried out with physiological saline 15 minutes thereafter and blood was washed out. […] By detaching the skull, the dura mater was extracted and incubated in an Eppendorf tube at 37° C. for 16 hours in the presence of physiological saline adjusted to pH 11. By carrying out a centrifugal operation, the supernatant was dispensed into a plate. The fluorescence intensity was measured using a fluorescence plate reader (excitation wavelength 485 nm, […] 530 nm). By weighing the dura mater weight, the fluorescence intensity per mg dura mater protein was calculated.
The values of fluorescence intensity measured at the time of the administration and non-administration of each compound are shown in FIG. 4 to FIG. 7.

In another assay the target is T2, human 5-HT7 receptor (Homo sapiens, UniProt P34969).
T2 construct: expressed in transfected cells; host or cells: CHO cells (membrane sample)
T2 sequence (P34969 whole entry): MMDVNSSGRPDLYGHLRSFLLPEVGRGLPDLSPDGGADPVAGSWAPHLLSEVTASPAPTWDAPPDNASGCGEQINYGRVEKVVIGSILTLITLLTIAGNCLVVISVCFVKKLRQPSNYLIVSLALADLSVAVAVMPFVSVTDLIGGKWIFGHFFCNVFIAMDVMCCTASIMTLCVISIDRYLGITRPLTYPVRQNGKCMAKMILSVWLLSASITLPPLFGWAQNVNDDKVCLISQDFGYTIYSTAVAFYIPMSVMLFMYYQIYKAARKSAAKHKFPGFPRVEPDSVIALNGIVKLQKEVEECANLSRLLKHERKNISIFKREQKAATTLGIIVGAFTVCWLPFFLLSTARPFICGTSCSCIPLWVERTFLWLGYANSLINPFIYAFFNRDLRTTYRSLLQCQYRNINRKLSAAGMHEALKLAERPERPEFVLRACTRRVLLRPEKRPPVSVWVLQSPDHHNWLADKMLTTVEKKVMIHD
Nature of the assay: 5-HT7 receptor binding test. The note with it: [3H] 5-HT, human 5-HT7 receptor expressing CHO cell membrane. Here is the method: Test Method (2) 5-HT7 Receptor Binding Test (i) Membrane Sample Preparation
as §1, with “5-HT7 receptor expressing CHO” for “5-HT2B receptor-expressing HEK293-EBNA”, “PBS(−).” for “with a phosphate buffer (PBS)(−).”, “Tris-HCl” for “tris-hydrochloric acid (Tris-HCl)”
as §2
as §3, with “Tris-HCl, 4 mM CaCl2” for “Tris-HCl, 4-mM-CaCl2”, “human 5-HT7” for “human 5-HT2B”, “expressing CHO” for “expressing HEK293-EBNA”, “[^3H] 5-HT (3.40 TBq/mmol)” for “[^3H] Mesulergine (3.1 TBq/mmol);”, “of 10” for “of 1”, “μM metergoline,” for “μM ritanserin,”

Another assay has as its system male Wistar rats. In words: Inhibitory effect for defecation at the time of confined stress loading (rat confined stress defecation model). It is filed as in vivo. The settings on record: for action to suppress defecation (number of feces): 10 mg/kg p.o., compound used independently, feces counted 1 hour after stress loading, 10 mg/kg; for number of feces, significant difference in comparison with the non-administration group: rat, 1, 3 and 10 mg/kg administration groups, N=10. Here is the method:
Test Method (4) Inhibitory Effect for Defecation at the Time of Confined Stress Loading
The IBS-treating effect of the compound (I) of the present invention was evaluated using a method in which a confined stress is applied to rats and the evacuation quantity is measured (cf. “The Journal of Pharmacology Experimental Therapeutics”, (USA), 1992, vol. 261, p. 297-303).
An agent to be tested was administered to male Wistar rats (body weight 250 to 320 g, 10 animals for each group) and a confined stress was applied thereto 30 minutes thereafter. A confining cage (trade name: KN-468, 265 mm in width×95 mm in length×200 mm in height, Natsume Seisakusho, Tokyo) was used in the confined stress loading, and the number of feces during 1 hour after the stress loading was counted.

In assay [2] the target is T1, 5-HT2B receptor. The settings on record: literature value; cited from earlier work.

Data on seven compounds can be found in patent US8076348B2, “Acylguanidine derivative or salt thereof” (Astellas Pharma Inc., priority 2005, dated 2011).

Bounds are passed on as bounds.

T1 sequence (P41595 whole entry): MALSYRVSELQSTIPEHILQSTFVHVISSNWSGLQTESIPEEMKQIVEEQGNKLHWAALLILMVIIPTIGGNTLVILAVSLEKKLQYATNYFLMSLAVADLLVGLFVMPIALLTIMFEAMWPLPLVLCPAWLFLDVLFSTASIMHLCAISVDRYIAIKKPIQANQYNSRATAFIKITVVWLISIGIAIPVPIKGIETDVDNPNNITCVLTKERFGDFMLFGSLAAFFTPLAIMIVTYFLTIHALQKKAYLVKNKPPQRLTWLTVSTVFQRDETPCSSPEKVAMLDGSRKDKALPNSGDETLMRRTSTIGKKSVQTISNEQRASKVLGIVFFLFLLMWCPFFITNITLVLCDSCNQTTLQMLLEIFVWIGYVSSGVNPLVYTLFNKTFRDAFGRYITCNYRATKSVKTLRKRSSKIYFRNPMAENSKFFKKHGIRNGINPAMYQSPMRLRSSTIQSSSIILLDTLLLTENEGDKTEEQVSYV

A word on the Ki: it is the equilibrium dissociation constant of an inhibitor or competing ligand from its target. In the case of `CC(C)n1c2ccccc2c2ccc(C(=O)N=C(N)N)cc21` [Example 1, N-(diaminomethylene)-9-isopropyl-9H-carbazole-2-carboxamide], the Ki on 5-HT2B receptor [1] amounted to 4.6 nM; on human 5-HT7 receptor, 0.64 nM. Also, in the assay on Hartley male guinea pigs (30 mg/kg oral administration), the leaked protein quantity entry is “almost completely suppressed the leaked protein quantity”.
Consider `CC1CCN(CC[C@H]2CCCN2S(=O)(=O)c2cccc(O)c2)CC1` [SB-269970, (R)-3-(2-(2-(4-methylpiperidine-1-yl)ethyl)pyrrolidine-1-sulfonyl)phenol], for which, in the assay with Hartley male guinea pigs, the “minimum amount showing the maximum drug efficacy” value is on record as 10 mg/kg, the “dose at which the leaked protein quantity-reducing action was shown” value turned out to be 10 mg/kg and the “lowering of leaked protein quantity to the standard value when the dose was increased” value is reported as “did not lower the leaked protein quantity to the standard value”. Moreover, in the assay with male Wistar rats (rat), the “action to suppress defecation (number of feces)” value is listed as “did not show the action to suppress defecation”. The “number of feces, significant difference in comparison with the non-administration group” value with male Wistar rats is on record as “Significant difference was not found”.
For `NC(N)=NC(=O)c1ccc2c(c1)C1(SCCS1)c1ccsc1-2` [Example 81, N-(diaminomethylene)spiro[1,3-dithiolan-2,4′-indeno[1,2-b]thiophene]-6′-carboxamide], the results for the Ki on 5-HT2B receptor [1] and at human 5-HT7 receptor were 0.83 nM and 0.78 nM, respectively.
`CC(C)N1c2ccccc2Oc2ccc(C(=O)N=C(N)N)cc21` [Example 66, N-(diaminomethylene)-10-isopropyl-10H-phenoxazine-2-carboxamide]: the Ki was 0.26 nM at 5-HT2B receptor [1] and 2.6 nM at human 5-HT7 receptor.
Regarding `COC1(C)c2cc(C(=O)N=C(N)N)ccc2-c2sccc21` (centres unmarked) [Example 83], the inhibition constant Ki is 1.5 nM on 5-HT2B receptor [1] and 0.99 nM on human 5-HT7 receptor.
One may read the ED50 as the dose that gives a 50% effect, or the effect in half of the subjects. As to `NC(N)=NC(=O)c1ccc2c(c1)C1(CCCO1)c1ccsc1-2` (centres unmarked) [Example 84, N-(diaminomethylene)-4,5-dihydro-3H-spiro[furan-2,4′-indeno[1,2-b]thiophene]-6′-carboxamide], the Ki on 5-HT2B receptor [1] was found to be 1.3 nM; on human 5-HT7 receptor it was 2.5 nM. Besides, the ED50 with male Wistar rats (po, rat, p.o., read-out: ED50 (50% effective dose), suppressing action on defecation) stood at 0.72 mg/kg.
Turning to `CC(C)c1cc(-c2ccc(F)c3ccccc23)nc(N)n1` [RS-127445, 2-amino-4-(4-fluoronaphth-1-yl)-6-isopropylpyrimidine], in the assay on Hartley male guinea pigs, the “minimum amount showing the maximum drug efficacy” value was 3 mg/kg, the “dose at which the leaked protein quantity-reducing action was shown” value was 3 mg/kg and the “lowering of leaked protein quantity to the standard value when the dose was increased” value is given as “did not lower it to the standard value”. Also, the “action to suppress defecation (number of feces)” value in the assay on male Wistar rats (rat) is listed as “did not show the action to suppress defecation”. The “number of feces, significant difference in comparison with the non-administration group” value with male Wistar rats is “Significant difference was not found”. On 5-HT2B receptor [2], the “5-HT2B receptor-selective against 5-HT1A, 5-HT1B, 5-HT2A, 5-HT2C, 5-HT3, 5-HT6, 5-HT7, α1, M1, D2 and the like receptors” value was no less than 1000 times.
